9 compounds from patent US10017492B2 (KANGPU BIOPHARMACEUTICALS, LTD., priority 2014, dated 2018) can be followed below.

Molecules are shown by their SMILES. Read-outs that look alike come from different tables or passages of the source.

For one test, the system named is TNF-α. Kind of test: TNF-α activity inhibiting assay (LPS-stimulated peripheral blood, ELISA). Conditions: Homo sapiens, compound 100 nM, diluted peripheral blood of healthy volunteers, LPS 10 ng/mL, 6 hours, read-out: Inhibitory Rate on TNF-α (%). Format: cell-based, human. In a few lines:
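Human whole blood (EDTA), diluted 5-fold in RPMI 1640, pre-incubated 60 min at 37 °C with compound at 100 nM final (0.2% DMSO), then stimulated 6 h with 10 ng/mL LPS. Supernatant TNF-α measured by ELISA (OD450); inhibition relative to 0.2% DMSO control.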
(In general: An ELISA detects its analyte on a solid surface through an enzyme-linked reagent.)

Test [1] deals with Rec-1 cells (Mantle cell lymphoma cells). Kind of test: CTG cell proliferation assay, Rec-1 cells. Format: cell-based. The settings on record: Homo sapiens, Rec1, 72-120 hours, CellTiter-Glo, read-out: IC50 Value of Rec-1 Inhibition. On the procedure: (§1) CTG Cell Proliferation Assay
(§2) Rec-1 cells (Mantle cell lymphoma cells) (ATCC, catalog number CRL-3004), Namalwa.CSN/70 cells (Burkitt lymphoma cells) (DSMZ, catalog number ACC-70), and WSU-DLCL-2 cells (diffuse large B cell lymphoma cells) (DSMZ, catalog number ACC-575) were seeded at (5-15)×10^3 per well to a 96-well plate with transparent bottom and white wall (Corning, catalog number CLS3903) containing specific medium. The plate was placed in an incubator and incubated for 24 hours at 37° C. under 5% CO2. Compounds were prepared as 150 mM stock solutions with DMSO (Sigma, catalog number 276855), and were diluted with the medium to the desired concentration (the final concentration of DMSO was 0.2%) and then were added to each well, incubated in an incubator for 72-120 hours at 37° C. under 5% CO2. Then, 100 μl CellTiter-Glo® cell activity assay reagent (Promega, catalog number G7570) was added to each well. Mixing proceeded for 10 minutes on a shaker to induce cytolysis. The 96-well plate was placed at room temperature for 10 minutes to make the luminous signal stable. A white base film was pasted at the bottom of the culture plate. EnSpire was used to test the plate.

The subject of test [2] is WSU-DLCL-2 cells (diffuse large B cell lymphoma cells). The experiment in a line: CTG cell proliferation assay, WSU-DLCL-2 cells. The settings on record: 72-120 hours, CellTiter-Glo, read-out: IC50 Value of WSU-DLCL2 Inhibition. Format: cell-based. Here is the method: as §1, §2
Background: In ATP-based viability assays light output follows the ATP content of the culture.

In test [3] the test system is MM.1S cells (myeloma cells). Kind of test: Cell proliferation assay (MTS), MM.1S myeloma cells. Format: cell-based. The settings on record: Homo sapiens, MM1.S, 72 hours, read-out: IC50 values of MMIS Inhibition. In a few lines:
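MM.1S myeloma cells were seeded at 1.8×10^3 per well in RPMI and rested 24 hours before 72 hours of compound exposure at 37° C., 5% CO2, with final DMSO at 0.5%. Viability was read by MTS at OD490 nm, using OD650 nm as reference. IC50 came from variable-slope curves, with the 0.5% DMSO control set as 0% inhibition.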

Test [4] concerns Namalwa.CSN/70 cells (Burkitt lymphoma cells). Kind of test: CTG cell proliferation assay, Namalwa.CSN/70 cells. Format: cell-based. Conditions: 72-120 hours, CellTiter-Glo, read-out: IC50 Value of Namalwa.CSN/70 Inhibition. On the procedure: as §1, §2
[5] abbreviates: Homo sapiens, WSUDLCL2, WSU-DLCL-2 cells.

`COc1cccc(COc2cccc3c2CN(C2CCC(=O)NC2=O)C3=O)c1F` (stereo not drawn) [Compound A334, 3-(4-((2-fluoro-3-methoxybenzyl)oxy)-1-oxoisoindolin-2-yl)piperidine-2,6-dione]: the inhibition at 0.1 µM in the test with TNF-α was at least 50%. In addition, the IC50 in test [1] was under 100 nM; in test [2] (setting [5]) it was over 300000 nM; in test [3], under 300 nM; in test [4], over 300000 nM.

As for `O=C1CCC(N2Cc3c(OCc4ccc(CN5CCOCC5)cc4F)cccc3C2=O)C(=O)N1` (stereo not drawn) [Compound A386, 3-(4-((2-fluoro-4-(morpholinomethyl)benzyl)oxy)-1-oxoisoindolin-2-yl)piperidine-2,6-dione], the inhibition at 0.1 µM in the test on TNF-α is at least 50%. Further, the IC50 in test [1] was under 100 nM; in test [2] (setting [5]), under 100 nM; in test [3] it was under 300 nM; in test [4], over 300000 nM.

Take `O=C1CCC(N2Cc3c(NCc4cccc(CN5CCOCC5)c4F)cccc3C2=O)C(=O)N1` (stereo not drawn) [Compound A381, 3-(4-((2-fluoro-3-(morpholinomethyl)benzyl)amino)-1-oxoisoindolin-2-yl)piperidine-2,6-dione]: the inhibition at 0.1 µM in the test on TNF-α was at least 50%. In addition, the IC50 in test [1] was under 100 nM; in test [2] (setting [5]) it was 401 to 300000 nM; in test [3], under 300 nM; in test [4] it was over 300000 nM.

On to `Nc1cc(F)cc2c1CN([C@H]1CCC(=O)NC1=O)C2=O` [Compound I-29], for which the inhibition at 0.1 µM with TNF-α is over 50%. Moreover, the IC50 in test [1] is under 100 nM; in test [2] (setting [5]), over 300000 nM; in test [3], under 300 nM; in test [4] it was over 300000 nM.

Regarding `[2H][C@]1(N2Cc3c(NCc4ccc(CN5CCOCC5)cc4F)cccc3C2=O)CCC(=O)NC1=O` [Compound A402], the inhibition at 0.1 µM in the test with TNF-α is at least 50%. The IC50 was under 100 nM in test [1], under 100 nM in test [2] (setting [5]), under 300 nM in test [3] and over 300000 nM in test [4].

As for `[2H][C@]1(N2Cc3c(OCc4cccc(CN5CCOCC5)c4F)cccc3C2=O)CCC(=O)NC1=O` [Compound A404, (S)-3-deuterium-3-(4-((2-fluoro-3-(morpholinomethyl)benzyl)oxy)-1-oxoisoindolin-2-yl)piperidine-2,6-dione], the inhibition at 0.1 µM with TNF-α was at least 50%. The IC50 is under 100 nM in test [1], 401 to 300000 nM in test [2] (setting [5]), under 300 nM in test [3] and over 300000 nM in test [4].

Regarding `O=C1CCC(N2Cc3c(NCc4cc(CN5CCOCC5)ccc4F)cccc3C2=O)C(=O)N1` (stereo not drawn) [Compound A383, 3-(4-((2-fluoro-5-(morpholinomethyl)benzyl)amino)-1-oxoisoindolin-2-yl)piperidine-2,6-dione], in the test on TNF-α, the inhibition at 0.1 µM is at least 50%. Also, the IC50 was 100 to 400 nM in test [1], 401 to 300000 nM in test [2] (setting [5]), under 300 nM in test [3] and over 300000 nM in test [4].

On to `[2H]C1(N2Cc3c(OCc4ccc(CN5CC(C)OC(C)C5)cc4F)cccc3C2=O)CCC(=O)NC1=O` (stereo not drawn) [Compound A427, 3-deuterium-3-(4-((4-((2,6-dimethylmorpholino)methyl)-2-fluorobenzyl)oxy)-1-oxoisoindolin-2-yl)piperidine-2,6-dione], for which the inhibition at 0.1 µM in the test with TNF-α is at least 50%. Also, the IC50 in test [1] is under 100 nM; in test [2] (WSU-DLCL-2 cells), 401 to 300000 nM; in test [3], under 300 nM; in test [4] it was over 300000 nM.

Take `O=C1CCC(N2Cc3c(NCc4ccc(CN5CCOCC5)cc4F)cccc3C2=O)C(=O)N1` (stereo not drawn) [Compound A382]: the inhibition at 0.1 µM with TNF-α was at least 50%. The IC50 in test [1] is under 100 nM; in test [2] (setting [5]) it was under 100 nM; in test [3] it was under 300 nM; in test [4], over 300000 nM.
